Measurements published in PubChem BioAssay (NCI).
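Interpolation was linear, between the two tested concentrations surrounding the appropriate level; five concentrations were tested over 48 hours in 96-well plates. Abbreviation: GI50, concentration required for 50% inhibition of growth. At the TGI there is no net growth.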

system: UO-31 renal; experiment: NCI anticancer screen, dose series, 48 h

| SMILES | TGI [µM] | GI50 [µM] |
| --- | --- | --- |
| COC(=N)c1csc(C2OC(CO)C(O)C2O)n1 (configuration not stated) | > 100 |  |
| CN1Nc2ccccc2CC1=O | > 100 |  |
| CCOc1ccc(OCC(=O)O)c2c1CCCC2=O | > 100 |  |
| Nc1c(S(=O)(=O)c2ccc(Cl)cc2)c2nc3ccccc3nc2n2ccnc12 | > 100 |  |
| CCCCCCCC(=O)OCC1OC(n2cc(F)c(=O)[nH]c2=O)C(N)C(OC(=O)CCCCCCC)C1O (configuration not stated) | 36.6 |  |
| CCOc1ccc(NC(=O)CC2SC(=Nc3ccc(C)cc3C)NC2=O)cc1 (configuration not stated) | > 100 |  |
| CCSc1nc(N=Cc2ccccc2O)c2cn[nH]c2n1 | > 100 | 61.6 |
| Oc1oc(C(=C2N=c3ccccc3=N2)c2ccc(Cl)cc2)c(O)c1-c1ccc(Cl)cc1 | 8.08 |  |
| Cc1nc2c(N)ncnc2o1 | > 100 |  |
| O=C1C/C(Br)=C\c2ccccc2-c2ccccc21 | 6.87 |  |
| CCCCCCCCCCCC[N+]12CC[N+](CCN)(CC1)CC2 | > 100 |  |
| O=[N+]([O-])c1cccnc1N=Nc1c(O)[nH]c2ccccc12 | 81.2 |  |
| O=C1C=C(Nc2ccc(Cl)cc2C(=O)c2ccccc2)c2ccccc2C1=O | > 100 |  |
| CC[C@@H]1NC(C(=O)OC)Cc2c1[nH]c1ccccc21 (some centres not stated) | > 100 |  |
| O=C1C=C(c2c(O)ccc3ccccc23)c2cc(O)ccc2C1=O | 36.5 |  |
| O=C(c1ccc([N+](=O)[O-])cc1[N+](=O)[O-])N(/N=C/C=C/c1ccccc1)c1nnc(-c2ccccc2)c(-c2ccccc2)n1 | 50.6 |  |
| Cc1cc(C)nc(NS(=O)(=O)c2ccc(Nc3c4ccccc4nc4c(C(=O)N5CCN(CCO)CC5)cccc34)cc2)n1 | > 100 |  |
| CC1=C(C(=O)Nc2ccccc2)C(c2ccc(Cl)c(Cl)c2)C(C(=O)Nc2ccccc2)=C(C)N1 | 26 |  |
| COc1ccc(NC(=O)CSc2nnc(-c3ccc(NC(C)=O)cc3)o2)cc1 | 33 |  |
| CC(=O)N/C(=C\c1ccccc1/C=C(\NC(C)=O)c1nc2cc(C)c(C)cc2[nH]1)c1nc2cc(C)c(C)cc2[nH]1 | 12.5 |  |
| CC12c3ccccc3C(OC=O)(c3ccccc31)C1(C)c3ccccc3C2(OC=O)c2ccccc21 | > 100 |  |
| CN(Cc1cnc2nc(N)nc(N)c2n1)c1ccc(C(=O)N[C@@H](CCS(=O)(=O)O)C(=O)O)cc1 | > 100 |  |
| CCOC(=O)Cc1csc(Nc2ccccc2[N+](=O)[O-])n1 | > 100 |  |

system: SF-295 CNS; experiment: NCI anticancer screen, dose series, 48 h

| SMILES | GI50 [µM] | TGI [µM] |
| --- | --- | --- |
| Cc1nc2c(Br)cc(Br)cc2c(=O)n1-c1nnc(-c2cccc(Cl)c2Cl)c(N)n1 | 13.2 | 41.1 |
| N#CC(I)CS(=O)(=O)c1ccccc1 (configuration not stated) | > 100 | > 100 |
| Cc1nc2sccn2c1-c1nc2sccn2c1/C=C1/C(=O)Nc2ccccc21 | 2.12 | 8.09 |
| O=Cc1cc2c(cc1-c1cc3c(cc1C=O)OCO3)OCO2 |  | > 100 |
| C/C(=N\NC(N)=O)c1sc(-c2nc(C)c(/C(C)=N/NC(N)=O)s2)nc1C |  | > 100 |
| CN(C)CCNC(=O)Cc1ccccc1Nc1c(Cl)cccc1Cl |  | 30.1 |
| O/N=C1\CCCCC1C(NO)c1ccccc1 (configuration not stated) |  | > 100 |
| C[N+](C)(C)CC(=O)N/N=C(/Cc1cc(=O)oc2cc(O)ccc12)C(=O)Nc1ccc(Cl)cc1 |  | > 100 |
| O=S(=O)(OI(OI(OS(=O)(=O)C(F)(F)F)c1ccccc1)c1ccccc1)C(F)(F)F |  | > 100 |
| COc1cc(OC)c(OC)cc1/C=N/NC(=O)N/N=C/c1cc(OC)c(OC)cc1OC |  | > 100 |
| FC(F)(F)c1ccc2nc(NCc3ccccc3)c(-c3ccccc3)nc2c1 |  | > 100 |
| CCOC(=O)Nc1c(C)nc2ccccn12 | > 100 | > 100 |
| Cc1cc2c(cc1C)[n+](=O)cc(C(=O)C/C(=N/NC(=S)NN)C(=O)Nc1cccc(C(F)(F)F)c1)n2[O-] |  | > 100 |
| COCOCCC#CCO |  | > 100 |
| COc1cc(C[P+](c2ccccc2)(c2ccccc2)c2ccccc2)cc(OC)c1OC |  | > 100 |
| C=C(C)[C@@H]1CC[C@]2(CN)CC[C@]3(C)[C@H](CC[C@@H]4[C@@]5(C)CCCNC(C)(C)[C@@H]5CC[C@]43C)[C@@H]12 | 1.78 | 3.29 |
| CCCN(CCC)c1c([N+](=O)[O-])cc(C(=O)N(CC)CC)cc1[N+](=O)[O-] |  | > 100 |
| C=C(CN(C)Cc1ccccc1)c1ccc(NC(=O)c2ccc(C(=C)CN(C)Cc3ccccc3)cc2)cc1 | 71.4 | > 100 |
| COC(=N)c1csc(C2OC(CO)C(O)C2O)n1 (configuration not stated) |  | > 100 |
| CN1Nc2ccccc2CC1=O |  | > 100 |
| CCOc1ccc(OCC(=O)O)c2c1CCCC2=O |  | > 100 |

| SMILES | GI50 [µM] | TGI [µM] |
| --- | --- | --- |
| Nc1c(S(=O)(=O)c2ccc(Cl)cc2)c2nc3ccccc3nc2n2ccnc12 |  | > 100 |
| CCCCCCCC(=O)OCC1OC(n2cc(F)c(=O)[nH]c2=O)C(N)C(OC(=O)CCCCCCC)C1O (configuration not stated) |  | 31.3 |
| CCOc1ccc(NC(=O)CC2SC(=Nc3ccc(C)cc3C)NC2=O)cc1 (configuration not stated) |  | > 100 |
| CCSc1nc(N=Cc2ccccc2O)c2cn[nH]c2n1 | 23.9 | 80.2 |
| Oc1oc(C(=C2N=c3ccccc3=N2)c2ccc(Cl)cc2)c(O)c1-c1ccc(Cl)cc1 |  | 16.8 |
| Cc1nc2c(N)ncnc2o1 |  | > 100 |
| O=C1C/C(Br)=C\c2ccccc2-c2ccccc21 |  | 16.9 |
| CCCCCCCCCCCC[N+]12CC[N+](CCN)(CC1)CC2 |  | > 100 |
| O=[N+]([O-])c1cccnc1N=Nc1c(O)[nH]c2ccccc12 |  | 38.7 |
| O=c1[nH]c(=O)n(C2CC(O)C(CO)O2)cc1OS(=O)(=O)C(F)(F)F (configuration not stated) |  | > 100 |
| O=C1C=C(Nc2ccc(Cl)cc2C(=O)c2ccccc2)c2ccccc2C1=O |  | > 100 |
| CC[C@@H]1NC(C(=O)OC)Cc2c1[nH]c1ccccc21 (some centres not stated) |  | > 100 |
| O=C1C=C(c2c(O)ccc3ccccc23)c2cc(O)ccc2C1=O |  | 34.9 |
| O=C(c1ccc([N+](=O)[O-])cc1[N+](=O)[O-])N(/N=C/C=C/c1ccccc1)c1nnc(-c2ccccc2)c(-c2ccccc2)n1 |  | > 100 |
| Cc1cc(C)nc(NS(=O)(=O)c2ccc(Nc3c4ccccc4nc4c(C(=O)N5CCN(CCO)CC5)cccc34)cc2)n1 |  | > 100 |
| CC1=C(C(=O)Nc2ccccc2)C(c2ccc(Cl)c(Cl)c2)C(C(=O)Nc2ccccc2)=C(C)N1 |  | 25.5 |
| COc1ccc(NC(=O)CSc2nnc(-c3ccc(NC(C)=O)cc3)o2)cc1 |  | 68.5 |
| CC12c3ccccc3C(OC=O)(c3ccccc31)C1(C)c3ccccc3C2(OC=O)c2ccccc21 |  | > 100 |
| CN(Cc1cnc2nc(N)nc(N)c2n1)c1ccc(C(=O)N[C@@H](CCS(=O)(=O)O)C(=O)O)cc1 |  | > 100 |
| CCOC(=O)Cc1csc(Nc2ccccc2[N+](=O)[O-])n1 |  | > 100 |

system: HL-60(TB) leukemia; experiment: NCI anticancer screen, dose series, 48 h

| SMILES | TGI [µM] | GI50 [µM] |
| --- | --- | --- |
| O=Cc1cc2c(cc1-c1cc3c(cc1C=O)OCO3)OCO2 | > 100 |  |
| C/C(=N\NC(N)=O)c1sc(-c2nc(C)c(/C(C)=N/NC(N)=O)s2)nc1C | > 100 |  |
| CN(C)CCNC(=O)Cc1ccccc1Nc1c(Cl)cccc1Cl | 36.1 |  |
| O/N=C1\CCCCC1C(NO)c1ccccc1 (configuration not stated) | > 100 |  |
| C[N+](C)(C)CC(=O)N/N=C(/Cc1cc(=O)oc2cc(O)ccc12)C(=O)Nc1ccc(Cl)cc1 | > 100 |  |
| COC(=O)c1c2c(c(C)[n+]([O-])c1C)C(=O)C(NCc1ccc(Br)cc1)=CC2=O | 5.37 | 2.31 |
| O=S(=O)(OI(OI(OS(=O)(=O)C(F)(F)F)c1ccccc1)c1ccccc1)C(F)(F)F | 36.5 |  |
| FC(F)(F)c1ccc2nc(NCc3ccccc3)c(-c3ccccc3)nc2c1 | 48.9 |  |
| Cc1cc2c(cc1C)[n+](=O)cc(C(=O)C/C(=N/NC(=S)NN)C(=O)Nc1cccc(C(F)(F)F)c1)n2[O-] | > 100 |  |
| COCOCCC#CCO | > 100 |  |
| COc1cc(C[P+](c2ccccc2)(c2ccccc2)c2ccccc2)cc(OC)c1OC | > 100 |  |
| CCCN(CCC)c1c([N+](=O)[O-])cc(C(=O)N(CC)CC)cc1[N+](=O)[O-] | 50.8 |  |
| COC(=N)c1csc(C2OC(CO)C(O)C2O)n1 (configuration not stated) | > 100 |  |
| CCOc1ccc(OCC(=O)O)c2c1CCCC2=O | > 100 |  |
| Nc1c(S(=O)(=O)c2ccc(Cl)cc2)c2nc3ccccc3nc2n2ccnc12 | > 100 |  |
| CCCCCCCC(=O)OCC1OC(n2cc(F)c(=O)[nH]c2=O)C(N)C(OC(=O)CCCCCCC)C1O (configuration not stated) | 42.3 |  |
| CCOc1ccc(NC(=O)CC2SC(=Nc3ccc(C)cc3C)NC2=O)cc1 (configuration not stated) | > 100 |  |
| Oc1oc(C(=C2N=c3ccccc3=N2)c2ccc(Cl)cc2)c(O)c1-c1ccc(Cl)cc1 | 5.02 |  |
| Cc1nc2c(N)ncnc2o1 | > 100 |  |
| O=C1C/C(Br)=C\c2ccccc2-c2ccccc21 | 5.7 |  |
| CCCCCCCCCCCC[N+]12CC[N+](CCN)(CC1)CC2 | > 100 |  |
| O=c1[nH]c(=O)n(C2CC(O)C(CO)O2)cc1OS(=O)(=O)C(F)(F)F (configuration not stated) | > 100 |  |
| O=C1C=C(Nc2ccc(Cl)cc2C(=O)c2ccccc2)c2ccccc2C1=O | > 100 |  |
| CC[C@@H]1NC(C(=O)OC)Cc2c1[nH]c1ccccc21 (some centres not stated) | > 100 |  |
| O=C(c1ccc([N+](=O)[O-])cc1[N+](=O)[O-])N(/N=C/C=C/c1ccccc1)c1nnc(-c2ccccc2)c(-c2ccccc2)n1 | 51.6 |  |
| Cc1cc(C)nc(NS(=O)(=O)c2ccc(Nc3c4ccccc4nc4c(C(=O)N5CCN(CCO)CC5)cccc34)cc2)n1 | > 100 |  |
| COc1ccc(NC(=O)CSc2nnc(-c3ccc(NC(C)=O)cc3)o2)cc1 | 50.9 |  |
| CC12c3ccccc3C(OC=O)(c3ccccc31)C1(C)c3ccccc3C2(OC=O)c2ccccc21 | > 100 |  |
| CCOC(=O)Cc1csc(Nc2ccccc2[N+](=O)[O-])n1 | > 100 |  |
